Results as given in ChEMBL document CHEMBL1154363, “Heterocyclic 1,7-disubstituted indole sulfonamides are potent and selective human EP3 receptor antagonists” (Bioorg Med Chem Lett, 2009).

Columns and labels:
[1] = biological target: T1, Thromboxane A2 receptor (Homo sapiens) (UniProt P21731); test: Activity at TP receptor at 1 uM by FLIPR assay
T1 sequence (whole entry): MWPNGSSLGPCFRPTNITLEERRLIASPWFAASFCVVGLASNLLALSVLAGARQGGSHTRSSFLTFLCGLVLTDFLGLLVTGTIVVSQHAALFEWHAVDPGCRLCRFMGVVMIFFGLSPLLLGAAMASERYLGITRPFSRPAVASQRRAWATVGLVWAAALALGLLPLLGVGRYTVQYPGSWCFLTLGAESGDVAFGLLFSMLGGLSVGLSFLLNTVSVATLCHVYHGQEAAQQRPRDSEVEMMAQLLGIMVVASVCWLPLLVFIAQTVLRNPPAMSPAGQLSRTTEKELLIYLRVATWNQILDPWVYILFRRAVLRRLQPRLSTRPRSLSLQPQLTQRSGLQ

[2] = biological target: T2, Prostaglandin F2-alpha receptor (Homo sapiens, UniProt P43088); test: Activity at FP receptor at 1 uM by FLIPR assay
[3] = biological target: T2, Prostaglandin F2-alpha receptor; test: Activity at FP receptor at 0.1 uM by FLIPR assay
[4] = biological target: T3, Prostaglandin E2 receptor EP3 subtype (Homo sapiens, UniProt P43115); test: Displacement of [3H]PGE2 from human EP3 receptor
T3 sequence (P43115 whole entry): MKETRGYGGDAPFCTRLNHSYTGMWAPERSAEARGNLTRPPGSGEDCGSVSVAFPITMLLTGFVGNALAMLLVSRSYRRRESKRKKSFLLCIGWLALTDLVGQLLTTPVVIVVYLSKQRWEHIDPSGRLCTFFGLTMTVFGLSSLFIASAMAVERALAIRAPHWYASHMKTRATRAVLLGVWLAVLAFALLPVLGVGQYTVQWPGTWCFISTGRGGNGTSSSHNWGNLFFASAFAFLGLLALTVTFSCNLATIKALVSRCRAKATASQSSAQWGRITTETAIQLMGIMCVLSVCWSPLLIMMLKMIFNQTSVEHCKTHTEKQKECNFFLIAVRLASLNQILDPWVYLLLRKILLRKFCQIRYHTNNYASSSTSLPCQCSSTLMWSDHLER

[5] = biological target: T2, Prostaglandin F2-alpha receptor; test: Activity at FP receptor at 10 uM by FLIPR assay
[6] = biological target: T1, Thromboxane A2 receptor (Homo sapiens); test: Activity at TP receptor at 10 uM by FLIPR assay
[7] = biological target: T4, Prostaglandin E2 receptor EP4 subtype (Homo sapiens, UniProt P35408); test: Activity at EP4 receptor at 0.1 uM by FLIPR assay
[8] = biological target: T4, Prostaglandin E2 receptor EP4 subtype; test: Activity at EP4 receptor at 1 uM by FLIPR assay
[9] = biological target: T5, Prostaglandin E2 receptor EP1 subtype (Homo sapiens) (UniProt P34995); test: Activity at EP1 receptor at 1 uM by FLIPR assay
T5 sequence (whole entry): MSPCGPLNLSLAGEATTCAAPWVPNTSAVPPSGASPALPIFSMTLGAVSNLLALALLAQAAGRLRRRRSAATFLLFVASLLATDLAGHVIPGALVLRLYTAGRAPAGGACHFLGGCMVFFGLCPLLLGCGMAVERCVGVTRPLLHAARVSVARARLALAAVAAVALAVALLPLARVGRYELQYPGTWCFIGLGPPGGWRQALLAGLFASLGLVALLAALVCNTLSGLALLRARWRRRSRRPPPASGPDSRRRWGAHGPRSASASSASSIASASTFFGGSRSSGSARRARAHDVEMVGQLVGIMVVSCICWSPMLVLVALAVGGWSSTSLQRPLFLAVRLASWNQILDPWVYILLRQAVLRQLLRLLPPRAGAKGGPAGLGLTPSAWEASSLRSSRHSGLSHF

[10] = biological target: T5, Prostaglandin E2 receptor EP1 subtype (Homo sapiens); test: Activity at EP1 receptor at 0.1 uM by FLIPR assay
[11] = biological target: T4, Prostaglandin E2 receptor EP4 subtype; test: Activity at EP4 receptor at 10 uM by FLIPR assay
[12] = biological target: T6, Prostaglandin E2 receptor EP3 subtype (Homo sapiens) (UniProt P43115); test: Displacement of [3H]PGE2 from human EP3 receptor in presence of 10% human serum
T6 sequence (whole entry): T3 sequence (P43115 whole entry)

[13] = biological target: T5, Prostaglandin E2 receptor EP1 subtype (Homo sapiens); test: Activity at EP1 receptor at 10 uM by FLIPR assay
[14] = biological target: T1, Thromboxane A2 receptor (Homo sapiens); test: Activity at TP receptor at 0.1 uM by FLIPR assay
[15] = Metabolic stability in rat liver microsomes assessed as compound remaining after 30 mins; type: ADME, Microsome; settings: read-out: Stability
[16] = Protein binding in plasma by HSA-HPLC method; type: ADME, cell-free; settings: human, read-out: PB (converted)
[17] = Metabolic stability in human liver microsomes assessed as compound remaining after 30 mins; type: ADME, Microsome; settings: read-out: Stability

T4 sequence (P35408 whole entry): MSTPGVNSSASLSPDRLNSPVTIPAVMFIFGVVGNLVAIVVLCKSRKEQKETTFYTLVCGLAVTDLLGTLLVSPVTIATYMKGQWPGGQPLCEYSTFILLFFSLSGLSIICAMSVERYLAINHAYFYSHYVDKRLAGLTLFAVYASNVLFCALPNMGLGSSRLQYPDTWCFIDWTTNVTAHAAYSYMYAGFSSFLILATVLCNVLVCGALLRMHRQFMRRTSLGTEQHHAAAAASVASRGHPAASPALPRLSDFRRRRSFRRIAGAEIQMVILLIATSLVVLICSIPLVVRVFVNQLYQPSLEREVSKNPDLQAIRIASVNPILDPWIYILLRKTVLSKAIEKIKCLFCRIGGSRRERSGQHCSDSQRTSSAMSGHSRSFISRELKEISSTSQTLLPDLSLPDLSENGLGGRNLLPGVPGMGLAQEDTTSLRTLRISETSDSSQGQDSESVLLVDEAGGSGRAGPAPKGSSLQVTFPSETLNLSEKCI
T2 sequence (P43088 whole entry): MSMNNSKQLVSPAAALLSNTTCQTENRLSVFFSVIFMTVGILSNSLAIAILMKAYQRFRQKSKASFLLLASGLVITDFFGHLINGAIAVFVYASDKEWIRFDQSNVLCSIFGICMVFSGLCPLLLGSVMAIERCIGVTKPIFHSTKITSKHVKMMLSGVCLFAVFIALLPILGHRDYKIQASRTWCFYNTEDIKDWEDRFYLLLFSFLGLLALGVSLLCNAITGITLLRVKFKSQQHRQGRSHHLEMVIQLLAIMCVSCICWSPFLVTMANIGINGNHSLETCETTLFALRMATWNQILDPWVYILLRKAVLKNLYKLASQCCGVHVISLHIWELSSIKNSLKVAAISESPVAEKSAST

Structure (SMILES): Cc1cn(Cc2ccc(F)c(F)c2)c2c(-c3cc(NS(=O)(=O)c4ccc(F)c(F)c4F)no3)cc(F)cc12
- Activity [1]: 3%
- Activity [2]: -11%
- Activity [3]: 3%
- IC50 [4]: 12 nM
- Activity [5]: 99%
- Activity [6]: 70%
- Activity [7]: -8%
- Activity [8]: -3%
- Activity [9]: 77%
- Activity [10]: 5%
- Activity [11]: 38%
- fold change (FC) [12]: 103
- Activity [13]: 99%
- Activity [14]: 5%

Structure (SMILES): Cc1cn(Cc2ccc(Cl)cc2Cl)c2c(-c3cc(NS(=O)(=O)c4ccc(Cl)c(Cl)c4)no3)cc(F)cc12
- IC50 [4]: 1 nM
- fold change (FC) [12]: 18

Structure (SMILES): Cc1cn(Cc2ccc(F)c(F)c2)c2c(-c3cc(NS(=O)(=O)c4cc(Cl)c(Cl)s4)nn3C)cc(F)cc12
- IC50 [4]: 1980 nM
- fold change (FC) [12]: 1

Structure (SMILES): Cc1cn(Cc2ccc(Cl)cc2Cl)c2c(-c3nc(NS(=O)(=O)c4cc(Cl)c(Cl)s4)no3)cc(F)cc12
- Activity [1]: 5%
- Activity [2]: -2%
- Activity [3]: -4%
- IC50 [4]: 24 nM
- Activity [5]: 30%
- Activity [6]: 98%
- Activity [7]: -21%
- Activity [8]: -21%
- Activity [9]: 74%
- Activity [10]: 5%
- Activity [11]: 25%
- fold change (FC) [12]: 20.9
- Activity [13]: 100%
- Activity [14]: 2%

Structure (SMILES): Cc1cn(Cc2ccc(Cl)cc2Cl)c2c(-c3nnc(NC(=O)c4ccc(F)c(F)c4)o3)cc(F)cc12
- Activity [1]: -1%
- Activity [2]: 15%
- Activity [3]: 3%
- IC50 [4]: 664 nM
- Activity [5]: 66%
- Activity [6]: 64%
- Activity [7]: 9%
- Activity [8]: 14%
- Activity [9]: 10%
- Activity [10]: -7%
- Activity [11]: 62%
- fold change (FC) [12]: 19.6
- Activity [13]: 96%
- Activity [14]: 11%

Structure (SMILES): Cc1cn(Cc2ccc(F)cc2F)c2c(-c3cc(NS(C)(=O)=O)on3)cc(F)cc12
- IC50 [4]: 17900 nM

Structure (SMILES): Cc1cn(Cc2ccc(Cl)cc2Cl)c2c(-c3nnc(NS(=O)(=O)c4cc(Cl)c(Cl)s4)o3)cc(F)cc12
- IC50 [4]: 10 nM
- remaining at 0.5 h [15]: 46.4%
- fraction unbound [16]: 0.002
- remaining at 0.5 h [17]: 62.7%
- fold change (FC) [12]: 27

Structure (SMILES): Cc1cn(Cc2ccc(Cl)cc2Cl)c2c(-c3nnc(NC(=O)c4ccc5c(c4)OC(F)(F)O5)o3)cc(F)cc12
- IC50 [4]: 244 nM
- fold change (FC) [12]: 21.4

Structure (SMILES): Cc1cn(Cc2ccc(Cl)cc2Cl)c2c(-c3cc(NS(=O)(=O)c4cc(F)c(F)cc4F)no3)cc(F)cc12
- IC50 [4]: 3 nM
- fold change (FC) [12]: 3.3

Structure (SMILES): Cc1cn(Cc2ccc(Cl)cc2Cl)c2c(-c3nnc(NC(=O)c4ccc(F)cc4F)o3)cc(F)cc12
- IC50 [4]: 1020 nM

Structure (SMILES): Cc1cn(Cc2ccc(Cl)cc2Cl)c2c(-c3ccc(NS(=O)(=O)c4cc(Cl)c(Cl)s4)nc3)cc(F)cc12
- IC50 [4]: 2 nM
- fold change (FC) [12]: 217
